Test results taken from article PMC11134608, “UBR5 forms ligand-dependent complexes on chromatin to regulate nuclear hormone receptor stability” (Molecular cell, 2023).

Legend:
[1] = test system: ATRA-induced gene expression in NB4 cells; experiment: RNA sequencing of NB4 cells; type: cell-based, human; details: NB4, ATRA 0, 8, 24, 48 h
Protocol: Cell lines were expanded, treated with ligand, and incubated at 37C. Cells were pelleted by centrifugation for 5 minutes, washed with cold PBS, and RNA was isolated by RNeasy kit (Qiagen) per manufacturer’s instructions. RNA was sent to Novogene for library preparation and sequencing, or prepared for sequencing (NEBNext, New England Biolabs) and sequenced on an Illumina NextSeq 550 sequencer.
Paired-end reads were aligned to the hg38.p13[81],[82] reference genome with the STAR[83] (v5.2.7b) aligner as part of the RSEM[99] command line tool. Gene transcript abundance was further quantified from aligned fragments using RSEM to generate a gene-by-sample matrix of expected counts. Differential expression was tested, as with the ChIP-seq data, using the DESeq[88],[93]2 and ashr[94] pipeline, this time calculating sample-specific scale factor offset using the method of median-ratio as implemented in the R package EBSeq[100] (v1.36.0). For plotting in heatmaps, genes were selected based on ChIP-seq peak annotation and subset.

[2] = test system: RARA and UBR5 on chromatin in NB4 cells; experiment: ChIP-seq of RARA and UBR5 in NB4 cells; type: cell-based, human; details: NB4, ATRA 8 and 24 h vs DMSO
Protocol: Cell lines were expanded (up to 50 million), treated with ligand, and incubated at 37 °C. Cells were pelleted by centrifugation for 5 minutes, washed twice with cold PBS, and resuspended, in 5 ml of room temperature PBS. 20 μl of 0.5M Disuccinimidyl glutarate (DSG) (ThermoFisher), was added and incubated for 30 minutes at room temperature. Cells were pelleted by centrifugation and resuspended in 8.325 ml of PBS and 8.325 ml of 2% formaldehyde and incubated for 30 minutes at room temperature. Cross-linking was quenched by the addition of 1665 μl of 1 M Tris-HCl pH 8.0 and 832.5 μl of 2.5 M glycine. Cells were pelleted and washed twice with PBS. Cross-linked cells were resuspended in LB1 Buffer (50mM HEPES-KOH, pH7.5, 140mM NaCl, 1mM EDTA, 10% Glycerol, 0.5% NP-40, 0.25% Triton X-100 in distilled water) and rotated for 10 minutes at 4C. Cells were pelleted and resuspended in LB2 (10mM Tris-HCl, pH 8.0, 200mM NaCl, 1mM EDTA, 0.5mM EGTA in distilled water) and rotated for 10 minutes at 4C. Cells were pelleted and resuspended in LB3 (10mM Tris-HCL, pH 8.0, 100mM NaCl, 1mM EDTA, 0.5mM EGTA, 0.1% Na-deoxycholate, 0.5% Na-Lauroylsarcosine, 1% Triton X-100, in distilled water) sonicated (Covaris, E220). […] Fragment length and concentrations were assessed using TapeStation (Agilent) and Qubit (ThermoFisher), and libraries were sequenced on an Illumina NextSeq 550 sequencer. […]

PML-RARA-GFP reporter = PML-RARA-GFP reporter degradation; type: cell-based, human; details: equivalent single-residue glutamate substitutions
Protocol: (§1) Reporter cell lines were seeded in triplicate at a density of 1 million cells/ml in 100 μl per well in a 96 well plate and measured once. Ligand was added by Digital Dispenser (Tecan), and incubated at 37°C for the appropriate time before reading by flow cytometry. Cells were analyzed for GFP vs mCherry expression. GFP expression was normalized to mCherry signal and ligand treatments were compared to DMSO controls.

PML-RARA = test system: PML-RARA; set-up: method as in PMID 10611294, PMID 20378816; details: ATRA targets RARA, ATO targets PML, ref [6],[11]; cited from earlier work
RARA reporter = RARA reporter degradation (GFP/mCherry); type: cell-based, human
Protocol: as §1

UBR5-RARA = experiment: In vitro FLAG-UBR5 pull-down of His-tagged RARA; type: binding, human; details: 50 μM ligand, anti-His western, 25 mM HEPES pH 7.4, 125 mM NaCl, 0.05% TWEEN-20
Protocol: 12 μL of FLAG M2 slurry were equilibrated with binding buffer (25 mM HEPES pH 7.4, 125 mM NaCl, 0.05% TWEEN-20). The resin was pelleted and excess buffer removed. 60 μL of fresh binding buffer was re-added, followed by addition of 15 pmol (2.5 μL ofa6 μM solution) of purified FLAG-UBR5 protein and incubated on a rotating wheel at 4°C for 60–90 minutes. The resin was pelleted, excess buffer removed, and 150 μL fresh binding buffer (supplemented with 50 μM ligand of interest or DMSO) added, followed by 150 pmol protein (binding partner protein of interest) and incubated for another 60 minutes. The resin was pelleted, excess buffer removed and washed with 400 μL of binding buffer (supplemented with ligand of interest or DMSO), and this process was repeated three times. The resin was pelleted, excess buffer removed and 45 μL of binding buffer supplemented with 1 mg/mL 3xFLAG peptide was added to elute proteins over 30 minutes on a rotating wheel at room temperature. The resin was pelleted, and 40 μL of the supernatant was collected and mixed with 12 μL of 5xSDS gel loading buffer. 6 μL of these samples were applied to SDS-PAGE on a 4–20% gradient gel (Biorad). The gel was transferred to a nitrocellulose membrane using the Trans-Blot Turbo Transfer System (Biorad). Following blocking with 5% skim milk solution in TBST, primary antibodies targeting the NR proteins were added in TBST and incubated overnight at 4 °C. The following day, membranes were washed thrice with TBST buffer and incubated for 45 minutes with fluorescent secondary antibody (Invitrogen A11357), followed by three more washes with TBST. Imaging was performed on a Licor Odyssey system, scanned at 800 nm.

UBR5-RARA/RXRA [3] = experiment: In vitro FLAG-UBR5 pull-down of His-tagged RARA/RXRA heterodimer; type: binding, human; details: 50 μM ATRA, mutant proteins
Protocol: The resin was pelleted and excess buffer removed. 60 μL of fresh binding buffer was re-added, followed by addition of 15 pmol (2.5 μL ofa6 μM solution) of purified FLAG-UBR5 protein and incubated on a rotating wheel at 4°C for 60–90 minutes. The resin was pelleted, excess buffer removed, and 150 μL fresh binding buffer (supplemented with 50 μM ligand of interest or DMSO) added, followed by 150 pmol protein (binding partner protein of interest) and incubated for another 60 minutes. The resin was pelleted, excess buffer removed and washed with 400 μL of binding buffer (supplemented with ligand of interest or DMSO), and this process was repeated three times. The resin was pelleted, excess buffer removed and 45 μL of binding buffer supplemented with 1 mg/mL 3xFLAG peptide was added to elute proteins over 30 minutes on a rotating wheel at room temperature. The resin was pelleted, and 40 μL of the supernatant was collected and mixed with 12 μL of 5xSDS gel loading buffer. 6 μL of these samples were applied to SDS-PAGE on a 4–20% gradient gel (Biorad). The gel was transferred to a nitrocellulose membrane using the Trans-Blot Turbo Transfer System (Biorad). Following blocking with 5% skim milk solution in TBST, primary antibodies targeting the NR proteins were added in TBST and incubated overnight at 4 °C. […]

[4] = test system: RARA complexes (NCOR, NCOA, UBR5); experiment: RARA-GFP immunoprecipitation (IP-MS and IP-western); type: cell-based, human
Protocol: To examine the temporal dynamics of this competition in cells, we performed sequential RARA immunoprecipitation/mass spectrometry (IP/MS) in the presence of MG132 at 0, 4, and 16 h following ATRA treatment.
Reporter cells (up to 100 million) were treated with ligand (ATRA, dexamethasone) and allowed to incubate for different time points. […] Lysates were incubated with GFP-Trap Magnetic Agarose beads (ChromoTek, GTMA-20) overnight at 4°C on a rotator. Beads were magnetically removed and washed three times with Pierce IP Lysis Buffer with ligand added before boiling in 1x NuPAGE LDS Sample Buffer (ThermoFischer, NP0007).
After the washing step, samples were eluted using Glycine-HCl buffer (0.2 M, pH 2.4) and rebuffered to pH 8.0. The IP eluates were reduced with 10 mM TCEP for 30 min at room temperature, and then alkylated with 15 mM iodoacetamide for 45 min at room temperature in the dark. Alkylation was quenched by the addition of 10 mM DTT. Proteins were isolated by methanol-chloroform precipitation. The protein pellets were dried and then resuspended in 50 μL 200 mM EPPS pH 8.0. The resuspended protein samples were digested with 2 μg LysC overnight at room temperature followed by the addition of 0.5 μg Trypsin for 6 h at 37°C. Protein digests were dried, resuspended in 100 μL 1% formic acid, and desalted using 10-layer C18 stage-tips before being analyzed by LC-MS.

[5] = test system: RARA and RXRA protein levels in NB4 cells; experiment: Whole-proteome mass spectrometry of NB4 cells; type: cell-based, human; details: ATRA 24 h, n = 3 per condition
Protocol: Cells were lysed by addition of lysis buffer (8 M Urea, 50 mM NaCl, 50 mM 4-(2-hydroxyethyl)-1-piperazineethanesulfonic acid (EPPS) pH 8.5, Protease and Phosphatase inhibitors) and homogenization by bead beating (BioSpec) for three repeats of 30 seconds at 2400. Bradford assay was used to determine the final protein concentration in the clarified cell lysate. […] Desalted peptides were dried in a vacuum-centrifuged and reconstituted in 0.1% formic acid for LC-MS analysis.
Data were collected using a TimsTOF Pro2 (Bruker Daltonics, Bremen, Germany) coupled to a nanoElute LC pump (Bruker Daltonics, Bremen, Germany) via a CaptiveSpray nano-electrospray source.
The ddaPASEF parameters included: 100% duty cycle using accumulation and ramp times of 50 ms each, 1 TIMS-MS scan and 10 PASEF ramps per acquisition cycle. […] The quadrupole isolation width was set to 2 m/z for m/z <700 and 3 m/z for m/z >800, with the m/z between 700–800 m/z being interpolated linearly. […] To perform diaPASEF, the precursor distribution in the DDA m/z-ion mobility plane was used to design an acquisition scheme for DIA data collection which included two windows in each 50 ms diaPASEF scan. […]

NB4 cells = experiment: NB4 viability (relative cell counts); type: cell-based, human; details: shUBR5 vs shCTRL, n = 4
Protocol: (D) Western blotting of NB4 cells transduced with shRNAs against luciferase (shCTRL) or UBR5 treated with or without ATRA. (E) Viability by relative cell counts of NB4 cells transduced with control or UBR5 shRNAs (two shRNAs per condition, combined) following treatment with 1 μM ATRA for 24 h. (n = 4, two-sided t test). […] (NS, not significant, *p < 0.05, **p < 0.005, ***p < 0.0005, ****p < 0.00005, error bars represent SEM.)
All flow cytometry-based assays (degradation and viability assays) were run in triplicate (n=3) unless otherwise specified where n represents a distinct flow cytometric specimen (a well or tube containing ~100,000 cells). P-values were calculated using GraphPad Prism two-sided t-test and are centered around the mean and error bars represent the SEM unless otherwise specified.
K. NB4 cell viability following
transduction of shRNAs againstluciferase or UBR5 and ATRA treatment for 3 days.Data from two shRNAs are combined.(n=4, two sided t-test)NS,not significant, *p < 0.05, **p <0.005, ***p<

UBR5-RARA/RXRA [6] = experiment: RARE dsDNA incorporation into UBR5-RARA/RXRA complex; type: binding, human
Protocol: A.Western blot (anti-His)showingin vitroFLAG-UBR5 pulldownofpurified His-tagged RARA/RXRA heterodimer, showing thata fluorescein-labelled 24-merdsDNAcontaining a DR5 Retinoic Acid
Immediately before preparing samples for SDS-PAGE, fluorescence
counts were measured at 488 nm to assessdsDNAincorporation. Fluorescence counts were normalized to the –dsDNA, DMSO condition as abaseline.

RARA and PML-RARA = experiment: Western blotting of RARA / PML-RARA degradation in NB4 cells; type: cell-based, human
Protocol: Membranes were blocked for 30 minutes to 1 hour at room temperature in Odyssey Blocking Buffer/PBS (LI-COR Biosciences), and incubated with primary antibodies at 4 °C overnight. Stained membranes were washed three times in Tris-buffered saline with Tween 20 (TBS-T) and incubated for 1 hour at room temperature with secondary IRDye-conjugated antibodies (LI-COR Biosciences). Membranes were washed three times in TBS-T before imaging (Odyssey Imaging System, LI-COR Biosciences).

Structure (SMILES): CC1=C(/C=C/C(C)=C/C=C/C(C)=C/C(=O)O)C(C)(C)CCC1 [ATRA, all-trans-retinoic acid]
- effect of UBR5 knockdown on ATRA-induced transcription [1]: strongly decreased transcriptional activation
- RARA ChIP-seq peaks [2]: lost following ATRA treatment
- UBR5 ChIP-seq binding at RARA loci [2]: binding was strengthened following ATRA treatment
- degradation of PML-RARA-GFP reporter, cleft mutants (PML-RARA-GFP reporter): blocked ATRA-induced degradation of the PML-RARA-GFP reporter in cells
- PML-RARA degradation (literature) (PML-RARA): PML-RARA is degraded therapeutically
- requirement of UBR5 HECT domain for RARA reporter degradation (RARA reporter; HEK293, CRISPR-edited UBR5 deficient of HECT domain, n = 3): necessary for ATRA-induced RARA reporter degradation
- degradation of RARA reporter, I254 / I258 glutamate mutants (RARA reporter; I254 and I258 mutations, n = 3): significantly reduced ATRA-induced degradation
- RARA LBD reporter degradation (RARA reporter; RARA LBD only, ATRA): still mediated ATRA-induced reporter degradation
- degradation of RARA reporter, V240 glutamate mutant (RARA reporter; V240 single mutation, n = 3): abolished ATRA-induced degradation
- binding of RARA to UBR5 (UBR5-RARA): robustly induced binding of RARA to UBR5
- agonist-induced binding of RARA V240E / RXRA V280E to UBR5 (UBR5-RARA/RXRA [3]): abolished agonist-induced binding to UBR5 in vitro
- RARA-associated NCOA1 and UBR5 by IP-western ([4]; U937 RARA-GFP, 10 µM ATRA / MG132, 0-24 h): initial NCOA1 binding to RARA after 4 h of ATRA treatment, diminishing NCOA1 binding from 4 to 16 h, and increased binding of UBR5 at 16 and 24 h
- RARA-associated UBR5 by IP/MS ([4]; with MG132, 0, 4, 16 h ATRA): enrichment of UBR5 peptides at 16 h post ATRA treatment
- protein levels of RARA and RXRA [5]: significantly and selectively decreased
- ATRA sensitivity upon UBR5 knockdown (NB4 cells): decreased ATRA sensitivity in NB4 cells
- DNA incorporation into UBR5-RARA/RXRA complex (UBR5-RARA/RXRA [6]): DNA was readily incorporated into a UBR5-RARA/RXRA complex
- RARA and PML-RARA degradation, proteasome / neddylation dependence (RARA and PML-RARA; 10 µM ATRA with MG132 or MLN4924): dependent on the proteasome, but not neddylation
- effect of UBR5 knockdown on PML-RARA degradation (RARA and PML-RARA; UBR5 shRNA): prevented ATRA-induced degradation of PML-RARA in NB4 cells
- effect of UBR5 knockdown on RARA degradation (RARA and PML-RARA; UBR5 shRNA vs control shRNA): rescued ATRA-induced RARA degradation
